One test has as its system HCV replicon genotype 1a. Description: HCV replicon assay, genotype 1a (cell ELISA for replicon-encoded NS3/4A). The test is classed as cell-based, hepatitis C virus (HCV). The method in brief: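 Stable G418-selected neomycin-resistant HCV replicon cells were plated with serially diluted compound without G418 and incubated 96 h. After washing and lysis, replicon RNA was measured indirectly by cell ELISA for replicon-encoded NS3/4A; IC50 from four-parameter fit relative to DMSO control.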
(Replicon systems follow genome replication, usually without infectious particles.)

A further test deals with HCV replicon genotype 1b. In words: HCV replicon assay, genotype 1b (cell ELISA for replicon-encoded NS3/4A). The test is classed as cell-based, hepatitis C virus (HCV). The gist of the method: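 Genotype 1b replicon cells (neomycin-selected, G418 removed for assay) incubated 96 h with compound dilution series. Replication measured by cell ELISA for replicon-encoded NS3/4A after lysis; IC50 from four-parameter fit relative to DMSO control.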

Where [1] appears, read: Hepatitis C virus, 96 h, read-out: 1a IC50 (nM), genotype 1a replicon cells, 96 hours incubation, NS3/4A ELISA readout, % of DMSO control.
Where [2] appears, read: Hepatitis C virus, 96 h, read-out: 1b IC50 (nM), genotype 1b replicon cells, 96 hours incubation, NS3/4A ELISA readout, % of DMSO control.

Where two headings read alike, the source gives them in different places.

As for `CNC(=O)c1c(-c2ccc(C(F)F)nc2)oc2cc(N(C)S(C)(=O)=O)c(-c3ccc4ncn5c6cccc(F)c6cc5c4n3)cc12` [Example 3], the results for the IC50 with HCV replicon genotype 1a (setting [1]) and in the test on HCV replicon genotype 1b (setting [2]) were 3.38 nM and 4.12 nM, respectively.
Consider `CNC(=O)c1c(-c2ccc(F)cc2)oc2cc(N(C)S(C)(=O)=O)c(-c3ccc4nc(CN5CCN6C(=O)OCC6C5)n5c6cccc(F)c6cc5c4n3)cc12` (centres unmarked) [Example 98], for which the IC50 came out at 4.79 nM in the test with HCV replicon genotype 1a (setting [1]) and 4.16 nM with HCV replicon genotype 1b (setting [2]).
As for `CNC(=O)c1c(-c2ccc(F)cc2)oc2cc(N(C)S(C)(=O)=O)c(-c3ccc4nc(CC5CC[C@H](OC)C5)n5c6cccc(C#N)c6cc5c4n3)cc12` (some centres unmarked) [Example 132], the IC50 in the test on HCV replicon genotype 1a (setting [1]) was 2.83 nM; in the test with HCV replicon genotype 1b (setting [2]) it was 3.5 nM.
Turning to `CNC(=O)c1c(-c2ccc(F)cc2)oc2cc(N(C)S(C)(=O)=O)c(-c3ccc4c(n3)-c3cc5c(F)cccc5n3CN4CC(=O)OC)cc12` [Example 69, methyl 2-(11-fluoro-2-(2-(4-fluorophenyl)-3-(methylcarbamoyl)-6-(N-methylmethylsulfonamido)benzofuran-5-yl)pyrido[3′,2′:4,5]pyrimido[1,6-a]indol-5(6H)-yl)acetate], the IC50 was 9.69 nM with HCV replicon genotype 1a (setting [1]) and 6.04 nM in the test on HCV replicon genotype 1b (setting [2]).
In the case of `CNC(=O)c1c(-c2ccc(F)cc2)oc2nc(N(C)S(C)(=O)=O)c(-c3ccc4nc(CN5CC(F)C5)n5c6cccc(F)c6cc5c4n3)cc12` [Example 38, 5-(11-fluoro-6-((3-fluoroazetidin-1-yl)methyl)pyrido[3′,2′:4,5]pyrimido[1,6-a]indol-2-yl)-2-(4-fluorophenyl)-N-methyl-6-(N-methylmethylsulfonamido)furo[2,3-b]pyridine-3-carboxamide], the IC50 is 6.38 nM with HCV replicon genotype 1a (setting [1]) and 14.7 nM with HCV replicon genotype 1b (setting [2]).
Take `CNC(=O)c1c(-c2ccc(F)cc2F)oc2cc(N(C)S(C)(=O)=O)c(-c3ccc4nc(CN5CC(C)(OC)C5)n5c6cccc(F)c6cc5c4n3)cc12` [Example 138]: the IC50 with HCV replicon genotype 1a (setting [1]) was found to be 4.33 nM; in the test with HCV replicon genotype 1b (setting [2]) it was 4.59 nM.
The corresponding values for `CNC(=O)c1c(-c2ccc(F)cc2)oc2cc(N(C)S(C)(=O)=O)c(-c3ccc4nc(CN5C[C@H](F)[C@@H](F)C5)n5c6cccc(F)c6cc5c4n3)cc12` [Example 101] are 3.13 nM and 4.24 nM.
For `CNC(=O)c1c(-c2ccc(F)cc2)oc2cc(N(C)S(C)(=O)=O)c(-c3ccc4nc(CN5CC(F)C5)n5c6cccc(C#N)c6cc5c4n3)cc12` [Example 120] the same measures were 1.67 nM and 2.01 nM.
For the compound `CNC(=O)c1c(-c2ccc(F)cc2)oc2cc(N(C)S(C)(=O)=O)c(-c3ccc4nc(CN5CC(C)(O)C5)n5c6cccc(F)c6cc5c4n3)cc12` [Example 78], the IC50 with HCV replicon genotype 1a (setting [1]) is 2.8 nM; in the test on HCV replicon genotype 1b (setting [2]), 3.34 nM.
`CNC(=O)c1c(-c2ccc(F)cc2)oc2cc(N(C)S(C)(=O)=O)c(-c3cnc4ncn5c6cccc(F)c6cc5c4c3)cc12` [Example 59, 2-(4-fluorophenyl)-5-(11-fluoropyrido[2′,3′:4,5]pyrimido[1,6-a]indol-2-yl)-N-methyl-6-(N-methylmethylsulfonamido)benzofuran-3-carboxamide]: the IC50 was determined as 2 nM in the test on HCV replicon genotype 1a (setting [1]) and 2.16 nM in the test on HCV replicon genotype 1b (setting [2]).
As for `CNC(=O)c1c(-c2ccc(F)cc2)oc2cc(N(C)S(C)(=O)=O)c(-c3ccc4nc(CN5CC(C)C5)n5c6cccc(F)c6cc5c4n3)cc12` [Example 103], the IC50 with HCV replicon genotype 1a (setting [1]) was found to be 2.05 nM; in the test on HCV replicon genotype 1b (setting [2]), 5.27 nM.
On to `CNC(=O)c1c(-c2ccc(F)cc2F)oc2cc(N(C)S(C)(=O)=O)c(-c3ccc4nc(CN5CC(F)C5)n5c6cccc(F)c6cc5c4n3)cc12` [Example 37], for which the IC50 with HCV replicon genotype 1a (setting [1]) came to 5.26 nM; in the test with HCV replicon genotype 1b (setting [2]), 7.26 nM.
For the compound `CNC(=O)c1c(-c2ccc(C)nc2)oc2cc(N(C)S(C)(=O)=O)c(-c3ccc4nc(CN5CC(F)C5)n5c6cccc(F)c6cc5c4n3)cc12` [Example 28, 5-(11-fluoro-6-((3-fluoroazetidin-1-yl)methyl)pyrido[3′,2′:4,5]pyrimido[1,6-a]indol-2-yl)-N-methyl-6-(N-methylmethylsulfonamido)-2-(6-methylpyridin-3-yl)benzofuran-3-carboxamide], the values for the IC50 with HCV replicon genotype 1a (setting [1]) and in the test on HCV replicon genotype 1b (setting [2]) were 15.2 nM and 5.38 nM, respectively.
The corresponding values for `CNC(=O)c1c(-c2ccc(F)cc2)oc2cc(N(C)S(C)(=O)=O)c(-c3ccc4nc(CN5CC(O)(C6CC6)C5)n5c6cccc(F)c6cc5c4n3)cc12` [Example 95] are 4.55 nM and 9.12 nM.
For `CNC(=O)c1c(-c2ccc(F)cc2)oc2cc(N(C)S(C)(=O)=O)c(-c3ccc4nc(CN5CC6(CCOCC6)C5)n5c6cccc(F)c6cc5c4n3)cc12` [Example 79], the IC50 in the test with HCV replicon genotype 1a (setting [1]) amounted to 2.37 nM; in the test with HCV replicon genotype 1b (setting [2]), 3.99 nM.
Take `CNC(=O)c1c(-c2ccc(F)cc2)oc2cc(N(C)S(C)(=O)=O)c(-c3ccc4nc(C(C)N5CC(F)C5)n5c6cccc(F)c6cc5c4n3)cc12` (single isomer, unassigned) [Example 40, (S or R)-5-(11-fluoro-6-(1-(3-fluoroazetidin-1-yl)ethyl)pyrido[3′,2′:4,5]pyrimido[1,6-a]indol-2-yl)-2-(4-fluorophenyl)-N-methyl-6-(N-methylmethylsulfonamido)benzofuran-3-carboxamide]: the IC50 was 3.91 nM with HCV replicon genotype 1a (read-out: 1a IC50, genotype 1a replicon cells, 96 hours incubation, NS3/4A ELISA readout, % of DMSO control) and 4.42 nM in the test with HCV replicon genotype 1b (read-out: 1b IC50, genotype 1b replicon cells, 96 hours incubation, NS3/4A ELISA readout, % of DMSO control).
On to `CNC(=O)c1c(-c2ccc(F)cc2)oc2cc(N(C)S(C)(=O)=O)c(-c3cc4c(cn3)nc(CN3CC(C)(F)C3)n3c5cccc(F)c5cc43)cc12` [Example 118], for which the IC50 was determined as 2.67 nM with HCV replicon genotype 1a (setting [1]) and 4.24 nM in the test on HCV replicon genotype 1b (setting [2]).
On to `CNC(=O)c1c(-c2ccc(F)cc2)oc2cc(N(C)S(C)(=O)=O)c(-c3ccc4nc(CN5CCC(F)(F)CC5)n5c6cccc(C#N)c6cc5c4n3)cc12` [Example 123], for which the IC50 in the test with HCV replicon genotype 1a (setting [1]) came to 6.91 nM; with HCV replicon genotype 1b (setting [2]), 5.8 nM.
`CNC(=O)c1c(-c2ccc(F)cc2)oc2cc(N(C)S(C)(=O)=O)c(-c3ccc4nc(CN5CCC(C)(O)CC5)n5c6cccc(F)c6cc5c4n3)cc12` [Example 93]: the IC50 in the test with HCV replicon genotype 1a (setting [1]) worked out at 4.19 nM; with HCV replicon genotype 1b (setting [2]), 7.78 nM.
Regarding `CNC(=O)c1c(-c2ccc(F)cc2F)oc2cc(N(C)S(C)(=O)=O)c(-c3ccc4nc(CN5CCC(F)(F)CC5)n5c6cccc(F)c6cc5c4n3)cc12` [Example 47], the values for the IC50 in the test on HCV replicon genotype 1a (setting [1]) and in the test on HCV replicon genotype 1b (setting [2]) were 9.67 nM and 11.2 nM, respectively.
As for `CNC(=O)c1c(-c2ccc(F)cc2)oc2cc(N(C)S(C)(=O)=O)c(-c3ccc4nc(CN5CC[C@@H](O)C5)n5c6cccc(F)c6cc5c4n3)cc12` [Example 87], the IC50 with HCV replicon genotype 1a (setting [1]) was 1.28 nM; in the test with HCV replicon genotype 1b (setting [2]), 1.26 nM.
For the compound `CNC(=O)c1c(-c2ccc(F)cc2F)oc2cc(N(C)S(C)(=O)=O)c(-c3ccc4nc(CN5CC(C)(F)C5)n5c6cccc(F)c6cc5c4n3)cc12` [Example 140], the IC50 with HCV replicon genotype 1a (setting [1]) stood at 2.95 nM; in the test on HCV replicon genotype 1b (setting [2]) it was 4.31 nM.

The values are drawn from US9493461B2, “Tetracyclic heterocycle compounds and methods of use thereof for the treatment of hepatitis C” (priority 2013, dated 2016).
